In US6358936B2, “Compounds for the treatment of cancer” (Ardenia Investments, Ltd., priority 1998, dated 2002):
Values joined by “and” are separate entries in the source; they are usually repeats but may differ in a detail not shown here. Equal values may be shown once. “Also recorded” adds a separate entry of the source. Read-outs that look alike come from different tables or passages of the source.

Key:
[1] = system: Ehrlich ascites carcinoma (EAC); test: Anti-tumour effect of DXR complexes on Ehrlich ascites carcinoma growth in ICR mice (i.v. days 2, 4, 6; tumour cells counted day 8); format: in vivo; settings: DXR 3.5 mg/kg; C4 22.5 mg/kg or C5 12 mg/kg
Method: Random-bred albino mice of line ICR, male and female, from own rearing were used in the study. The room for animal housing was provided with filtered air at 15 changes per hour, a temperature of 19-21° C., relative humidity of 50-60% and regulated light day of 12 hours with change of light and darkness at 6 a.m. and 6 p.m. The mice were kept in transparent polycarbonate cages with a floor area of 600 cm^2 containing softwood sawdust bedding. […] The mice aged 2-2.5 months and having a weight of 19-22 g were randomly distributed in the control and test groups, standardised by mean weights. The control and test groups included 10 and 7 animals correspondingly. The mice of each group were identified by specific ear marks. The cages with animals of each group were identified by cage cards marked with the study date, group number, number and sex of the animals.
The strain of EAC was propagated in ICR mice by intraperitoneal inoculation of 0.2 ml native ascites fluid or 0.5 ml ascites fluid diluted by saline to 1:1 from one or two animals with intraperitoneally growing EAC on day 7. Ascites fluids contained more 98% of viable tumour cells according to trypan blue exclusion test. For the each study the suspension of EAC cells in sterile saline in concentration of 10^7 viable tumour cells/ml was prepared in aseptic conditions from ascites fluid of mouse bearing of EAC on day 7.
The mice of each control and experimental groups were inoculated by intraperitoneal injection of 2×10^6 EAC cells in volume of 0.2 ml at day 0. Intravenous injections for the study were carried out in lateral tail vein of mice once every other day, three times (day 2, 4 and 6) following inoculation of EAC cells. The mice of control group were injected by vehicle in volume of 2.5 ml/kg of body weight (50 μl to mouse of 20 g body weight) intravenously (negative control).
The mice were killed by cervical dislocation two days later after the final treatment with the test complexes on day 8. Ascites fluids were removed, collected, their volumes were recorded, and abdominal cavities were washed by saline 6-7 times and both fluids were pooled. After centrifugation at 1000 r.p.m. for 10 min volumes of tumour cell pellet were also recorded. Number of viable tumour cells was counted by hemocetometer. Means and standard errors for each groups were calculated. Comparison of tumour cell number in control and test groups was carried out using Student's t-test. The influence of tested preparations on EAC growth inhibition was evaluated by the following formula: [formula]

[2] = system: EAC cells; test: Antitumor effect of compound 1 and doxorubicin on EAC in C3H mice (Example 20); format: in vivo; settings: for Ascites volume / Tumor cell quantity / EAC growth inhibition, % to control: days 2, 4, 6, day 9
Method: 20-22 g males of C3H mice were used. Control and experimental groups included 7 animals, which were inoculated 5×10^6 EAC cells i.p. in volume 0.2 ml at day 0. […] One group of mice was untreated control. Results of experiment were accounted on ninth day. Mice were killed by cervical dislocation. Ascitic fluids were removed, collected, their volumes were measured, and abdominal cavities were washed by saline solution 6-7 times. Thus obtained fluids were pooled. The number of viable tumor cells was counted by hemocytometer, using trypan blue exclusion test. The mean and the standard mean error was calculated for each group of mice. Comparison of tumor cell number in control and experimental groups was carried out using Student t-test. Influence of tested preparation on EAC growth inhibition was evaluated by: [formula]

[3] = system: EAC; test: Effect of compound 1 with AFP on growth of EAC in C3H mice (Example 21); format: in vivo; settings: compound 1 1 mg/kg (20 μg/mouse) i.v. ×3, AFP none
Method: The influence of compound with different amount of AFP on the growth of EAC was studied. The experiments were carried out on inbred C3H mice having initial weight of 20-23 g. The used tumor cell strain was supported by i.p. passages to mice of the same line. At the beginning of the research (day 0) four groups, each of which contained 7 mice, were formed. All of the animals were inoculated by tumour cells in saline solution i.p. (5·10^6 cells in 0,2 ml per a mouse).
The first group of animals was untreated (negative control). The mice were injected by NMS. […] The animals of third and fourth groups were injected the same dose of compound 1, the protein being added to NMS (2,5 and 5 μg/mouse, accordingly). On the ninth day after inoculation by EAC cells the mice were killed and ascitic fluids were collected and estimated quantitatively. Tumor cells suspensions were prepared and aliquotes were mixed with equal volume of 0,1% trypan blue solution. The quantity of tumor cells were counted with hemocytometer.
Results of the experiments were evaluated by means of variation statistics method using Student t-test. The values of inhibiting effects of the preparations were represented as percentage in comparison with control.

[4] = system: EAC; settings: for EAC growth inhibition / number of tumour cells: days 2, 4, 6, day 9
[5] = dose 20 μg/mouse i.v. (doxorubicin equivalent, 1 mg/kg)
[6] = dose 20 μg/mouse i.v. (doxorubicin equivalent, 1 mg/kg), 1 mg/kg
[7] = dose 50 μg/mouse i.v. (doxorubicin equivalent, 2.5 mg/kg)
[8] = dose 100 μg/mouse i.v. (doxorubicin equivalent, 5 mg/kg)
[9] = doses corresponding to 1 and 2.5 mg/kg of doxorubicin
[10] = doxorubicin dose 1 mg/kg i.v. in NMS
[11] = doxorubicin dose 2.5 mg/kg i.v. in NMS

CC1=C(/C=C/C(C)=C/C=C/C(C)=C/C(=O)N[C@@H](Cc2ccc(OP(=O)(O)O)cc2)C(=O)O)C(C)(C)CCC1 (stereo in doubt) [C4, N-(all-trans-retinoyl)-o-phospho-L-tyrosine]
influence of the compound on the anti-tumour action of DXR in the DXR/compound complex [1]: cancelled the anti-tumour action of DXR

CC/C=C\C/C=C\C/C=C\C/C=C\C/C=C\C/C=C\CCC(=O)N[C@H](C(=O)O)[C@@H](C)OP(=O)(O)O [C11, N-docosahexaenoyl-o-phospho-L-threonine]
influence of the compound on the anti-tumour action of DXR in the DXR/compound complex [1]: canceled the anti-tumour action of DXR

COc1cccc2c1C(=O)c1c(O)c3c(c(O)c1C2=O)CC(O)(C(=O)CO)CC3OC1CC(NC(=O)/C=C(C)/C=C/C=C(C)/C=C/C2=C(C)CCCC2(C)C)C(O)C(C)O1 (stereo not drawn) [Compound 1, N-(all-trans-retinoyl)-doxorubicin]
Ascites volume [2, 5]: 3.50 ± 1.30 mL
Tumor cell quantity [2, 5]: 640.0 ± 78.04 × 10^6
EAC growth inhibition, % to control [2, 6]: 47.3%
EAC growth inhibition, % to control ([2]; dose 20 μg/mouse i.v. (doxorubicin equivalent, 1 mg/kg), listed as compound 1, 1 mg/kg): 47%
Ascites volume [2, 7]: 2.10 ± 1.70 mL
Tumor cell quantity [2, 7]: 535.0 ± 167.90 × 10^6
EAC growth inhibition, % to control ([2]; dose 50 μg/mouse i.v. (doxorubicin equivalent, 2.5 mg/kg), 2.5 mg/kg): 55.9%
EAC growth inhibition, % to control ([2]; dose 50 μg/mouse i.v. (doxorubicin equivalent, 2.5 mg/kg), listed as compound 1, 2.5 mg/kg): 57% and 56%
Ascites volume [2, 8]: 3.30 ± 1.20 mL
Tumor cell quantity [2, 8]: 571.4 ± 66.96 × 10^6
EAC growth inhibition, % to control ([2]; dose 100 μg/mouse i.v. (doxorubicin equivalent, 5 mg/kg), 5 mg/kg): 52.9%
EAC growth inhibition, % to control ([2]; dose 100 μg/mouse i.v. (doxorubicin equivalent, 5 mg/kg), listed as compound 1, 5 mg/kg): 53%
anti-tumour effect towards EAC [2, 9]: exerts high anti-tumour effect towards EAC
Ascites volume [3]: 2.0 ± 0.25 mL
Tumor cell quantity [3]: 1185.7 ± 266.2 × 10^6
EAC growth inhibition, % to control ([3]; 1 mg/kg): 45.0%
EAC growth inhibition, % to control ([3]; listed as compound 1, 1 mg/kg): 45%

COc1cccc2c1C(=O)c1c(O)c3c(c(O)c1C2=O)C[C@@](O)(C(=O)CO)C[C@@H]3O[C@H]1C[C@H](NC(=O)\C=C(C)/C=C/C=C(C)/C=C/C2=C(C)CCCC2(C)C)[C@H](O)[C@H](C)O1 (relative stereo) [Compound 2, N-(13-cis-retinoyl)-doxorubicin]
antitumor effect in respect to EAC [4, 9]: exceeding the effect of doxorubicin alone
EAC growth inhibition [4, 10]: 45.3%
number of tumour cells [4, 10]: 533.5±94.23 ×10^6
EAC growth inhibition [4, 11]: 58.4%
number of tumour cells [4, 11]: 405.7±120.62 ×10^6

CCCCC/C=C\C/C=C\C/C=C\C/C=C\CCCC(=O)NCCOP(=O)(O)O [C5, N-arachidonoyl-o-phospho-2-aminoethanol]
influence of the compound on the anti-tumour action of DXR in the DXR/compound complex [1]: canceled the anti-tumour action of DXR; also recorded: cancelled the anti-tumour action of DXR

COc1cccc2c1C(=O)c1c(O)c3c(c(O)c1C2=O)C[C@@](O)(C(=O)CO)C[C@@H]3O[C@H]1C[C@H](N)[C@H](O)[C@H](C)O1 [DXR, doxorubicin, reference compound]
Ascites volume [2, 5]: 2.85 ± 1.35 mL
Tumor cell quantity [2, 5]: 765.8 ± 127.52 × 10^6
EAC growth inhibition, % to control [2, 6]: 36.9%
Ascites volume [2, 7]: 1.85 ± 1.10 mL
Tumor cell quantity [2, 7]: 662.1 ± 99.17 × 10^6
Ascites volume [2, 8]: 0.80 ± 0.60 mL
EAC growth inhibition, % to control [2, 8]: 71.2%
Tumor cell quantity [2, 8]: 350.0 ± 108.21 × 10^6
EAC growth inhibition [4, 10]: 34.8%
number of tumour cells [4, 10]: 635.9±122.78 ×10^6
number of tumour cells [4, 11]: 537.4±92.89 ×10^6
